{"source": "patent US7470658B2", "about": "“Methods for inhibiting tumor metastasis, and peptides useful therefor” (Burnham Institute for Medical Research, priority 1999, dated 2008)", "key": {"E-selectin:IgG": {"tested_on": "E-selectin:IgG", "details": "comparison value for the heptapeptides; read-out: IC50 by ELISA binding assay using biotinylated sLe^a-PAA and E-selectin:IgG; cited from earlier work"}, "[1]": {"tested_on": "human lung carcinoma HAL-8 cells", "assay": "In vivo lung metastasis of human lung carcinoma HAL-8 cells", "parameters": "species or system mouse", "details": "peptide pre-treatment i.v.", "protocol": "(§1) Phage (1×10^8 transducing units/100 ml/mouse) or peptide (500 mg/100 ml/mouse), each of which was equivalent to an amount 100 times the concentration required to inhibit binding between HL-60 to E-selectin determined by the in vitro assay described above in Example II (FIG. 1F), were injected intravenously into female mice (C57 black) that were 5-6 weeks old. The control phage lacks a consensus heptapeptide. The control peptide used in these experiments is MAPS alanine. After 20 minutes, metastatic tumor cells (2×10^5 cells) were administered through a tail vein. After 3 weeks, the numbers of metastatic foci appearing in the lung were counted.\nThe effect of IELLQAR (SEQ ID NO:7) peptide was assayed in the same manner described above."}, "E-selectin": {"target": "E-selectin", "sequence (P16581 22-175 limits assumed)": "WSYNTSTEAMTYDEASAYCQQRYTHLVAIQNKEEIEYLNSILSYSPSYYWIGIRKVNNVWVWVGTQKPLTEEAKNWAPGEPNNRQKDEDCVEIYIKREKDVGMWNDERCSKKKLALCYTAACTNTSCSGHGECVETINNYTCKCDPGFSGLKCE", "assay": "Inhibition of binding between sLe^x-PAA-biotin and E-selectin:IgG by phage or peptides (ELISA)", "details": "synthetic peptides (FIG. 1E); read-out: half inhibition value (IC50) of binding between sLe^x and E-selectin", "protocol": "The inhibition of binding between sLe^x and E-selectin:IgG by phage or peptides was assayed by adding five hundred ng of polymeric sLe^x (sLe^x-PAA-biotin, GlycoTech, Rocksville, Md.) to wells in the presence or absence of phage or peptide. After incubating at room temperature for 1 hour, wells were washed with TBS containing CaCl2, and sLe^x-PAA-biotin bound to each selectin was determined using the peroxidase conjugated avidin and peroxidase substrate ABTS (Pierce, Rockford, Ill.). The OD405 was read in an ELISA reader. The synthetic peptides used were linear IELLQAR (SEQ ID NO:7), cyclic CIELLQARC (SEQ ID NO:13) (cysteins linked by disulfide bonds are underlined), and IELLQAR (SEQ ID NO:7) multivalent (Fmoc eight branch), which was synthesized by AnaSpec, Inc. (San Jose, Calif.)."}, "[2]": {"tested_on": "human melanoma MeWo cells", "assay": "In vivo lung metastasis of human melanoma MeWo cells transfected with fucosyltransferase-III", "details": "peptide 500 mg/100 ml/mouse i.v. 20 minutes before cells; after 3 weeks (FIG. 2C)", "protocol": "(§2) The effect of IELLQAR (SEQ ID NO:7) phage and peptides on E-selectin mediated tumor metastasis was examined using mouse B16 melanoma cells or human melanoma MeWo cells transfected with fucosyltransferase-III, an enzyme which synthesizes sLe^x, as described in Kukowska-Latallo et al., Genes & Develop., 4:1288-1303 (1990). […] To test whether the heptapeptide sequence IELLQAR (SEQ ID NO:7) could inhibit metastasis in vivo, mice were injected with IELLQAR (SEQ ID NO:7) phage and with B16 cells through a tail vein and assayed for the presence of metastatic foci.\nas §1"}, "mouse B16 melanoma cells": {"tested_on": "mouse B16 melanoma cells", "assay": "In vivo lung metastasis of B16 melanoma cells transfected with fucosyltransferase-III", "details": "peptide 500 mg/100 ml/mouse i.v. 20 minutes before 2×10^5 cells; foci counted after 3 weeks (FIG. 2B)", "protocol": "as §2, §1"}, "[3]": {"tested_on": "B16 melanoma cells in the lung", "assay": "Immunohistochemistry of B16 melanoma cells in the lung (anti-melanoma HMB45)", "assay_type": "in vivo, mouse", "details": "pre-treated mice, one hour after administration of B16 cells", "protocol": "Next, the immunohistochemistry in the mouse lung of melanoma cells injected intravenously was assayed. Mice were injected intravenously with either control phage, IELLQAR (SEQ ID NO:7) phage, control peptide, or IELLQAR (SEQ ID NO:7) peptide, followed by injection with B16 melanoma cells. One hour after administering B16 melanoma cells, the lungs were fixed in 4% paraformaldehyde and paraffin sections were prepared. The melanoma cells in the lung were visualized by immunostaining using anti-melanoma HMB45 mouse monoclonal IgG1 antibody (DAKO, Carpinteria, Calif.) by the peroxidase method (Vectastatin ABC kit, Vector, Burlingame, Calif.)."}, "[4]": {"tested_on": "vascular endothelial cells of the lung", "assay": "Mouse lung histochemical analysis after intravenous injection of biotinylated peptide", "assay_type": "in vivo", "details": "i.v. injection, one hour, peroxidase conjugated avidin", "description": "Control peptide corresponding to MAPS alanine and IELLQAR (SEQ ID NO:7) peptide were biotinylated with biotin succinamide (Sigma, St. Louis, Mo.) and injected intravenously into mice. One hour after injection, mice were sacrificed, and tissues were examined histochemically using peroxidase conjugated avidin (Cappel, West Chester, Pa.) by the peroxidase method (Vectastatin ABC kit, Vector, Burlingame, Calif.)."}}}
{"compound": "CC(=O)N[C@H]1[C@H](O[C@H]2[C@@H](O)[C@@H](CO)OC(O)[C@@H]2O)O[C@H](CO)[C@@H](O[C@@H]2O[C@H](CO)[C@H](O)[C@H](O[C@]3(C(=O)O)C[C@H](O)[C@@H](NC(C)=O)[C@H]([C@H](O)[C@H](O)CO)O3)[C@H]2O)[C@@H]1O[C@@H]1O[C@@H](C)[C@@H](O)[C@@H](O)[C@@H]1O", "note": "(some centres unmarked) [sLe^x oligosaccharide, NeuNAcα2→3Galβ1→4(Fucα1→3)GlcNAcβ1→3Gal]", "values": [{"measurement": "IC50", "setting": "E-selectin:IgG", "result": 550, "unit": "µM"}]}
{"compound": "IELLQAR (SEQ ID NO:7) multivalent (Fmoc eight branch) [multivalent IELLQAR peptide, IELLQAR multivalent peptide, Fmoc eight branch MAPS, synthesized by AnaSpec]", "values": [{"measurement": "metastases of human lung carcinoma HAL-8 cells to the lung", "setting": "[1]", "result": "inhibited efficiently"}, {"measurement": "IC50", "setting": "E-selectin", "result": 10, "unit": "µM"}, {"measurement": "metastases of human melanoma MeWo cells to the lung", "setting": "[2]", "result": "inhibited efficiently"}, {"measurement": "metastasis of B16 melanoma to the lung, peptide pre-treatment", "setting": "mouse B16 melanoma cells", "result": "effective in preventing metastasis"}]}
{"compound": "IELLQAR [IELLQAR peptide, synthetic IELLQAR peptide injected into mice]", "values": [{"measurement": "state of B16 melanoma cells in lung tissue sections", "setting": "[3]", "result": "non-adherent and appeared apoptotic"}, {"measurement": "staining of biotinylated peptide on lung vascular endothelium", "setting": "[4]", "result": "detected on the vascular surface epithelium of the lung"}]}
{"compound": "IELLQAR [linear heptapeptide]", "values": [{"measurement": "IC50", "setting": "E-selectin", "result": 200, "unit": "µM"}]}
